Results as given in patent publication US11753634B2, “Method and apparatus for applying heat to living tissue” (NATIONAL TAIWAN UNIVERSITY, priority 2019, dated 2023).
Read-outs that look alike come from different tables or passages of the source.

Tests used:
[1] = tested on: human pancreatic cancer cells (PANC-1); assay: cells
Excerpt: In addition, for the portion of the living tissue, the human pancreatic cancer cells (PANC-1) are used instead of the neural cells as an example for illustration. Furthermore, the living pancreatic cancer cells are also placed in the culture solution of petri dish in order to perform the heat treatment method of the present invention.
In addition, for the portion of the living tissue, the human pancreatic cancer cells (PANC-1) are used as an example for illustration. Furthermore, the living pancreatic cancer cells are also placed in the culture solution of petri dish in order to perform the heat treatment method of the present invention.
The control group refers to the comparison group without the heat treatment according to the method of the present invention.

[2] = tested on: human neural cells (SH-SY5Y); assay: cell viability of human neural cells (SH-SY5Y) with/without cyclic heat treatment; settings: hydrogen peroxide processing

Nc1ccn([C@@H]2O[C@H](CO)[C@@H](O)C2(F)F)c(=O)n1 [Gem, gemcitabine]
viability at 5 µM ([1]; PANC-1, read-out: cell viability, PANC-1, 5 μM Gem, ten times of heat treatment, 43.5° C. / approximately 36° C. (FIG. 11)): 55%
viability at 5 µM ([1]; PANC-1, read-out: cell viability, PANC-1, 5 μM Gem, without the heat treatment (FIG. 11)): 90%

O=C(/C=C/c1ccc(O)c(O)c1)O[C@@H]1C[C@](O)(C(=O)O)C[C@@H](O)[C@H]1O [CGA, chlorogenic acid]
viability at 200 µM ([1]; PANC-1, read-out: cell viability, PANC-1, 200 μM CGA, ten times of heat treatment, 43.5° C. / approximately 36° C. (FIG. 10B)): 53%
viability at 200 µM ([1]; PANC-1, read-out: cell viability, PANC-1, 200 μM CGA, without the heat treatment (FIG. 10B)): 88%

OO [hydrogen peroxide]
cell viability ([2]; control group without the heat treatment (FIG. 5A, 5B)): 55%
cell viability ([2]; eight times of heat treatment, max 40.9° C. / min 39.4° C. (FIG. 5A)): 70%
cell viability ([2]; eight times of heat treatment, max 42.0° C. / min 40.3° C. (FIG. 5B)): 82%
